Where a name gives a salt, the structure may show the parent alone. Read-outs that look alike come from different tables or passages of the source.
How the values were obtained:
[1] = target: T1, ERAlpha receptor (Homo sapiens, UniProt P03372); test: ER alpha competition binding assay (3H-Estradiol); conditions: 3H-Estradiol competition; IC50 converted to Ki using Cheng-Prusoff; read-out: ER binding Ki (ERα)
T1 construct: purchased PanVera
T1 sequence (P03372 1-595): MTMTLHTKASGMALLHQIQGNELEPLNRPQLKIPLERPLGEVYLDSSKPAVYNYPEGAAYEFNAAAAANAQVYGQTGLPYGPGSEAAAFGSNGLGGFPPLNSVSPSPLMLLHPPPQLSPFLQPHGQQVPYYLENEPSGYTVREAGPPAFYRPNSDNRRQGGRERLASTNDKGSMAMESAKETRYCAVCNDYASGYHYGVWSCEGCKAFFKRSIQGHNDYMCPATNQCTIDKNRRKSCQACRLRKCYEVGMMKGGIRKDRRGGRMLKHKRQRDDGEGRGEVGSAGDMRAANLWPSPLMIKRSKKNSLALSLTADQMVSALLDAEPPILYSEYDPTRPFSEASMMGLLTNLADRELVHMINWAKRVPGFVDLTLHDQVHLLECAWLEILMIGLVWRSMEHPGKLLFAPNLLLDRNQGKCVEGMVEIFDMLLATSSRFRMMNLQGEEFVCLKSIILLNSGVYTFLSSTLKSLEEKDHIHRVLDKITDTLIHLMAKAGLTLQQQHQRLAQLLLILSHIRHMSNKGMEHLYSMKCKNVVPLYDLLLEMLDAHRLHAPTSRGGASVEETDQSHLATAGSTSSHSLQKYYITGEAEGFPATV
Procedure: (§1) Competition binding assay is run in a buffer containing 50 mM Hepes, pH 7.5, 1.5 mM EDTA, 150 mM NaCl, 10% glycerol, 1 mg/ml ovalbumin and 5 mM DTT, using 0.025 μCi per well ^3H-Estradiol(NEN #NET517 at 118 Ci/mmol, 1 mCi/ml), 10 ng/well ERAlpha or ERbeta receptor (PanVera). Competing compounds are added at 10 different concentrations. Non-specific binding is determined in the presence of 1 μM of 17-B Estradiol. The binding reaction (140 μl) is incubated for 4 hours at room temperature, then 70 μl of cold DCC buffer is added to each reaction (DCC buffer contains per 50 ml of assay buffer, 0.75 g of charcoal (Sigma) and 0.25 g of dextran (Pharmacia)). Plates are mixed 8 minutes on an orbital shaker at 4° C. Plates are then centrifuged at 3,000 rpm at 4° C. for 10 minutes. An aliquot of 120 μl of the mix is transferred to another 96-well, white flat bottom plate (Costar) and 175 μl of Wallac Optiphase “Hisafe 3” scintillation fluid is added to each well. Plates are sealed and shaken vigorously on an orbital shaker. After an incubation of 2.5 hrs, read plates in a Wallac Microbeta counter. […] The Kd for ^3H-Estradiol is determined by saturation binding to ER alpha and ER beta receptors. The IC50 values for compounds are converted to Ki using Cheng-Prusoff equation and the Kd determined by saturation binding assay.

[2] = target: T2, ERbeta receptor (Homo sapiens, UniProt Q92731); test: ER beta competition binding assay (3H-Estradiol); conditions: 3H-Estradiol competition; IC50 converted to Ki using Cheng-Prusoff; read-out: ER binding Ki (ERβ)
T2 construct: purchased PanVera
Procedure: as §1

[3] = system: MCF-7 breast adenocarcinoma cells; test: MCF-7 proliferation assay (14C-thymidine), antagonist mode; type: cell-based; conditions: with 10 pM E2
Procedure: MCF-7 breast adenocarcinoma cells (ATCC HTB 22) are maintained in MEM (minimal essential medium, phenol red-free, Gibco BRL) supplemented with 10% fetal bovine serum (FBS) (V/V), L-glutamine (2 mM), sodium pyruvate (1 mM), HEPES ((N-[2-hydroxyethyl]piperazine-N′-[2-ethanesulfonic acid]10 mM}, non-essential amino acids(0.1 mM)and Penicillin Streptomycin(1×). Seven days prior to assay, MCF-7 cells are switched to assay media which is the same as maintenance medium except supplemented with 10% dextran-coated charcoal-stripped fetal bovine serum (DCC-FBS) assay medium in place of 10% FBS. MCF-7 cells are removed from flasks using 10× Trypsin EDTA (phenol red free, Gibco BRL) and diluted to 1× in (Ca++/Mg++ free HBSS (phenol red-free). Cells are adjusted to 80,000 cells/ml in assay medium. Approximately 8,000 cells (100 μl) are added to each well in 96 well Cytostar T scintillation plates (Amersham) and incubated at 37° C. in a 5% CO2 humidified incubator for 24 hours to allow cell adherence and equilibration after transfer. Serial dilutions of drugs are prepared in assay medium at 4× the final desired concentration). A 50 μl aliquot of drug dilutions (at 4× the final assay concentration) is transferred to duplicate wells followed by 50 μl assay medium for the agonist mode or 50 μl of 40 pM of E2 for the antagonist mode to a final volume of 200 μl. For each of the agonist plates, a basal level (media) and a maximum stimulated level (with 1 μM E2) is determined. For each of the antagonist plates, a basal level (media) and a E2 (10 pM) alone control is determined. After an additional 48 hours at 37° C. in a 5% CO2 humidified incubator, 20 μl of assay medium containing 0.01 μCi of ^14C-thymidine (52 mCi/mmol, […], Amersham) is added to each well. The plates are incubated overnight in the same incubator and then counted on the Wallac Microbeta counter. […] For the agonist mode, an EC50 and percent of maximum E2 stimulation and concentration of maximum stimulation is calculated.

[4] = system: Ishikawa human endometrial tumor cells; test: Ishikawa cell assay (PNPP readout), agonist mode; type: cell-based; conditions: for Emax / Ishikawa Agonist % Eff: % efficacy versus the response to Tamoxifen; for Emax: read-out: Ishikawa Agonist % Eff
Source text: (§2) Ishikawa human endometrial tumor cells are maintained in MEM (minimum essential medium, with Earle's salts and L-Glutamine, Gibco BRL, Gaithersburg, Md.), supplemented with 10% fetal bovine serum (FBS) (V/V), (Gibco BRL). One day prior to assay, growth media is changed to assay medium, DMEM/F-12 (3:1) (Dulbecco's Modified Eagle Medium: Nutrient Mixture F-12, 3:1 Mixture, phenol red-free, Gibco BRL) supplemented with 5% dextran coated charcoal stripped fetal bovine serum (DCC-FBS) (Hyclone, Logen, Utah), L-Glutamine (2 mM), MEM sodium pyruvate (1 mM), HEPES (N-[2-hydroxyethyl]piperazine-N′-[2-ethanesulfonic acid] 2 mM) all from Gibco BRL). After an overnight incubation, ishikawa cells are rinsed with Dulbecco's Phosphate Buffered Saline (1×) (D-PBS) without Ca^+2 and Mg^+2 (Gibco BRL), and trypsinized by a 3 minute incubation with 0.25% Trypsin/EDTA, phenol red-free (Gibco BRL). Cells are resuspended in assay medium and adjusted to 250,000 cells/ml. Approximately 25,000 cells in a 100 ul media are added to flat-bottom 96 wells microculture plates (Costar 3596) and incubated at 37° C. in a 5% CO2 humidified incubator for 24 hours. The next day, serial dilutions of compounds are prepared in assay medium (at 6 times the final concentration in the assay). The assay is run in dual mode, agonist and antagonist modes. For the agonist mode, plates receive 25 μl/well of assay medium followed by 25 μl/well of diluted compounds (at 6× the final concentrations). For the antagonist mode, plates receive 25 μl/well of 6 nM E2 (β-Estradiol, Sigma, St. Louis, Mo.) followed by 25 μl/well of diluted compounds (at 6× the final concentrations). After an additional 48-hour incubation at 37° C. in a 5% CO2 humidified incubator, media is aspirated from wells and 100 μl fresh assay medium is added to each microculture. Serial dilutions of compounds are prepared and added to the cells as described above. After an additional 72 hour incubation at 37° C. in a 5% CO2 humidified incubator, the assay is quenched by removing media and rinsing plates twice in Dulbecco's Phosphate Buffered Saline (1×) (D-PBS) (Gibco BRL). The plates are dried for 5 min and frozen at −70° C. for at least 1 hour. The plates are then removed from the freezer and allowed to thaw at room temperature. To each well, 100 μl of 1-Step™ PNPP (Pierce Chemical Company, Rockford, Ill.) is added. After a 20-minute incubation, plates are read on a spectophotometer at 405 nm. The data is fitted to a linear interpolation to derive EC50 (for agonist mode) or IC50 (for antagonist mode) values. For the agonist mode, a % efficacy for each compound is calculated versus the response to Tamoxifen. For the antagonist mode, a % efficacy for each compound is calculated versus E2 (1 nM) alone.

[5] = system: Ishikawa human endometrial tumor cells; test: Ishikawa cell assay (PNPP readout), antagonist mode; type: cell-based; conditions: with 1 nM E2
Source text: as §2

[6] = Homo sapiens, MCF7, antagonist mode

T2 sequence (Q92731 whole entry): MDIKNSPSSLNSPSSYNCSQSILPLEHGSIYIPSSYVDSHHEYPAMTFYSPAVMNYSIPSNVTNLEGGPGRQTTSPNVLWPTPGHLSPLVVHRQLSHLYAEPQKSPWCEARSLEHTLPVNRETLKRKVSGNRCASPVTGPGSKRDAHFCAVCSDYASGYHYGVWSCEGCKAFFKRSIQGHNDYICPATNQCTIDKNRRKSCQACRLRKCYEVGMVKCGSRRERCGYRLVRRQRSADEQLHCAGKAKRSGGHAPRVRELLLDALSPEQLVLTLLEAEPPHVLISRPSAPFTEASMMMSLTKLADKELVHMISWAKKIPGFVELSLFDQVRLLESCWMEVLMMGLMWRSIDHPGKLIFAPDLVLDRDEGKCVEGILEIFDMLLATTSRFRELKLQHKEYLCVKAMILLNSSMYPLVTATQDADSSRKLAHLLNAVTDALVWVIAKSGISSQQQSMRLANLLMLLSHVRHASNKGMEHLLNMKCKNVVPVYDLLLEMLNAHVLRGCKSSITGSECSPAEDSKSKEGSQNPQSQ

SMILES: Oc1ccc2c3c(ccc2c1)Cc1ccc(F)cc1C3c1ccc(OCCN2CCCCC2)cc1 (racemic) [Example 5, 10-Fluoro-12-[4-(2-piperidin-1-yl-ethoxy)-phenyl]-7,12-dihydro-benzo[a]anthracen-3-ol]
- Ki [1]: 3 nM
- Ki [2]: 31 nM
- IC50 [3, 6]: 91 nM
- EC50 ([4]; Homo sapiens, Ishikawa): 11 nM
- Emax ([4]; Homo sapiens, Ishikawa): 79%
- IC50 [5]: 610 nM

SMILES: Oc1ccc2c3c(ccc2c1)Cc1ccc(F)cc1C3c1ccc(OCCN2CCCCC2)cc1 (racemic) [Example 6, 10-fluoro-12-[4-(2-piperidin-1-yl-ethoxy)-phenyl]-7,12-dihydro-benzo[a]anthracen-3-ol]
- IC50 ([3]; antagonist mode): 740 nM
- EC50 [4]: 116 nM

SMILES: Oc1ccc2c3c(ccc2c1)Cc1ccc(F)cc1C3c1ccc(OCCN2CCCCC2)cc1 (racemic) [Example 7, 10-fluoro-12-[4-(2-piperidin-1-yl-ethoxy)-phenyl]-7,12-dihydro-benzo[a]anthracen-3-ol]
- Ki [1]: 1 nM
- IC50 ([3]; antagonist mode): 9 nM
- EC50 [4]: 3 nM
- Ishikawa Agonist % Eff [4]: 72%

SMILES: Oc1ccc2c(c1)Cc1ccc3cc(O)ccc3c1C2c1ccc(OCCN2CCCCC2)cc1 (racemic) [Example 9, 12-[4-(2-Piperidin-1-yl-ethoxy)-phenyl]-7,12-dihydro-benzo[a]anthracene-3,9-diol]
- Ki [2]: 4 nM
- IC50 ([3]; antagonist mode): 2 nM
- EC50 [4]: 1 nM
- Ishikawa Agonist % Eff [4]: 27%

SMILES: Oc1ccc2c(c1)Cc1ccc3cc(O)ccc3c1C2c1ccc(OCCN2CCCCC2)cc1 (racemic) [Example 10, 12-[4-(2-piperidin-1-yl-ethoxy)-phenyl]-7,12-dihydro-benzo[a]anthracene-3,9-diol]
- Ki [2]: 5 nM
- EC50 [4]: 3 nM
- Ishikawa Agonist % Eff [4]: 56%

SMILES: Oc1ccc2c(c1)Cc1ccc3cc(O)ccc3c1C2c1ccc(OCCN2CCCCC2)cc1 (racemic) [Example 11, 12-[4-(2-piperidin-1-yl-ethoxy)-phenyl]-7,12-dihydro-benzo[a]anthracene-3,9-diol]
- Ki [2]: 4 nM
- IC50 ([3]; antagonist mode): 2 nM
- EC50 [4]: 1 nM
- Ishikawa Agonist % Eff [4]: 19%

SMILES: Oc1ccc2c3c(ccc2c1)Cc1ccc(F)cc1C3c1ccc(OCCN2CCCCC2)cc1 (single isomer, unassigned) [Example 6, 10-fluoro-12-[4-(2-piperidin-1-yl-ethoxy)-phenyl]-7,12-dihydro-benzo[a]anthracen-3-ol]
- Ki [1]: 70 nM
- Ki [2]: 149 nM
- Emax ([4]; Homo sapiens, Ishikawa): 69%

SMILES: Oc1ccc2c3c(ccc2c1)Cc1ccc(F)cc1C3c1ccc(OCCN2CCCCC2)cc1 (single isomer, unassigned) [Example 7, 10-fluoro-12-[4-(2-piperidin-1-yl-ethoxy)-phenyl]-7,12-dihydro-benzo[a]anthracen-3-ol]
- Ki [2]: 9 nM
- IC50 [5]: 440 nM

SMILES: Oc1ccc2c3c(sc2c1)Cc1ccccc1C3c1ccc(OCCN2CCCCC2)cc1 (stereo not shown) [Example 1, 11-[4-(2-Piperidin-1-yl-ethoxy)-phenyl]-6,11-dihydro-benzo[b]naphtho[2,3-d]thiophen-3-ol trifluoroacetate]
- Ki [1]: 2 nM
- Ki [2]: 5 nM
- IC50 [3, 6]: 17 nM
- EC50 ([4]; Homo sapiens, Ishikawa): 3 nM
- Emax ([4]; Homo sapiens, Ishikawa): 77%
- IC50 [5]: 712 nM

SMILES: Oc1ccc2c(c1)Cc1sc3cc(O)ccc3c1C2c1ccc(OCCN2CCCCC2)cc1 (stereo not shown) [Example 2, 11-[4-(2-Piperidin-1-yl-ethoxy)-phenyl]-6,11-dihydro-benzo[b]naphtho[2,3-d]thiophene-3,8-diol trifluoroacetate]
- Ki [1]: 1 nM
- Ki [2]: 1 nM
- IC50 [3, 6]: 1 nM
- EC50 ([4]; Homo sapiens, Ishikawa): 0.5 nM
- Emax ([4]; Homo sapiens, Ishikawa): 103%
- IC50 [5]: 45 nM

SMILES: Oc1ccc2c3c(sc2c1)Cc1cccc(O)c1C3c1ccc(OCCN2CCCCC2)cc1 (stereo not shown) [Example 3, 11-[4-(2-Piperidin-1-yl-ethoxy)-phenyl]-6,11-dihydro-benzo[b]naphtho[2,3-d]thiophene-3,10-diol trifluoroacetate]
- Ki [1]: 3 nM
- Ki [2]: 14 nM
- IC50 [3, 6]: 42 nM
- EC50 ([4]; Homo sapiens, Ishikawa): 3 nM
- Emax ([4]; Homo sapiens, Ishikawa): 135%
- IC50 [5]: 682 nM

SMILES: Oc1ccc2c(c1)C(c1ccc(OCCN3CCCCC3)cc1)c1c(sc3cc(O)ccc13)C2 (stereo not shown) [Example 4, 11-[4-(2-Piperidin-1-yl-ethoxy)-phenyl]-6,11-dihydro-benzo[b]naphtho[2,3-d]thiophene-3,9-diol]
- Ki [1]: 1 nM
- Ki [2]: 1 nM
- IC50 [3, 6]: 1 nM
- EC50 ([4]; Homo sapiens, Ishikawa): 1 nM
- Emax ([4]; Homo sapiens, Ishikawa): 56%
- IC50 [5]: 53 nM

From US7119206B2, “Derivative of dihydro-dibenzo (a) anthracenes and their use as selective estrogen receptor modulators” (Eli Lilly and Company, priority 2002, dated 2006)
